In patent US20160282364A1, “ASSAY FOR INSULIN-DEGRADING ENZYME (IDE) INHIBITORS” (PRESIDENT AND FELLOWS OF HARVARD COLLEGE, priority 2013, published 2016):
“Also recorded” adds a separate entry of the source.

Assays:
Type in all cases: in vivo, mouse
[1] = test system: C57BL/6J lean mice; test: CGRP-induced blood glucose excursions; conditions: 80 mg/kg 30 min before CGRP
Protocol: Supraphysiological doses of CGRP induce blood glucose fluctuations via amylin receptors. […] Blood glucose was monitored at various points throughout the experiment, beginning at 45 minutes before and ending at 110 minutes after CGRP administration. The data was plotted (left panel) and the area under the curve for the 6bK-administered mice and the control mice was integrated.

[2] = test system: Wild-type mice; test: Gastric emptying measurements; conditions: 30 minutes post-gavage, vs vehicle and bisepi-6bK controls
Protocol: Trunk blood was obtained for plasma hormone measurements using the Multiplexed Mouse Metabolic Hormone panel (Milliplex, EMD Millipore) on a Luminex FlexMap 3D instrument. Gastric emptying was measured by dissection of stomachs 30 min after an oral glucose bolus (3.0 g/kg, 10 mL/kg) in sterile saline containing 0.1 mg/mL phenol red.
Gastric emptying measurements. Mice were fasted 14 h (8 pm to 10 am). Inhibitor or vehicle alone was injected i.p. as previously described, followed 30 min later by an oral glucose bolus (3.0 g/kg, 10 mL/kg) in sterile saline containing 0.1 mg/mL phenol red. At 30 min, the stomach was promptly dissected after CO2-euthanasia and stored on ice. The stomach contents were extracted into 2.5 mL EtOH (95%) by homogenization for 1 min using a probe sonicator. Tissue debris were decanted by centrifugation at 4000 g, followed by clearing at 15000 g for 15 min. The supernatant (1 mL) was mixed with 0.5 mL of aqueous NaOH (20 mM), and incubated at −20° C. for 1 h. The solution was centrifuged at 15,000 g for 15 min, and absorbance was determined at 565 nm. The spectrophotometer was blanked with the stomach contents of a mouse treated with colorless glucose solution. The absorbance was adjusted to the amount of glucose solution dosed to each mouse. Values are reported as mean±S.E.M relative to the original phenol red glucose solution. […]

[3] = test system: Wild-type mice; test: Pyruvate tolerance test (PTT); conditions: vs controls
Protocol: Blood collection and plasma hormone measurements. Blood was collected in EDTA-coated tubes (BD Microtainer®) from trunk bleeding (˜500 μL) after CO2-euthanasia for all hormone assays. The plasma was immediately separated from red blood cells by centrifugation 10 min at 1800 g, aliquoted, frozen over dry ice and stored at −80° C. […] Values are reported as mean±S.E.M. Statistics were performed using a two-tail Student's t-test, and significance levels shown in the figures are *p<0.05 versus vehicle control group or **p<0.01 versus vehicle control group.
RT-PCR analysis of liver gluconeogenesis markers phosphoenolpyruvate carboxykinase (PEPCK) and glucose-6-phosphatase (G6Pase). Total RNA was isolated from liver samples (˜100 mg) using TRIzol® reagent (Invitrogen, 1 mL/100 mg sample), followed by spin-column purification (RNeasy® kit, Qiagen) and on-column DNAse treatment (Qiagen) according to the manufacturer's instructions. RNA concentrations were determined by UV spectrophotometry (NanoDrop). One microgram of total RNA was used for reverse transcription with oligo(dT) primers (SuperScript® III First-Strand Synthesis SuperMix, Life Technologies) according to the manufacturer's instructions. Quantitative PCR reactions included 1 μL of cDNA diluted 1:100, 0.4 μM primers, 2× SYBR Green PCR Master Mix (Invitrogen) in 25 μL total volume, and were read out by a CFX96TM Real-Time PCR Detection System (BioRad). Transcript levels were determined using two known primer pairs^18,19 for each gene of interest (Table 6), which were normalized against tubulin and beta-actin transcripts (ΔΔCT method), and expressed relative to the lowest sample. Duplicate control assays without reverse transcriptase treatment were run for each RNA preparation and primer set used. Statistics were performed using a two-tail Student's t-test, and significance levels shown in the figures are *p<0.05 versus vehicle control group or **p<0.01 versus vehicle control group.

For `NCCCC[C@@H]1NC(=O)/C=C/C(=O)N[C@H](C(N)=O)CCCCNC(=O)[C@@H](Cc2ccc(C(=O)c3ccccc3)cc2)NC(=O)[C@H](CC2CCCCC2)NC1=O` [Compound 6bK], the “CGRP-induced blood glucose excursions” value [1] was “augments”, the “slower gastric emptying of a labeled glucose solution” value [2] was 2 fold and the plasma glucagon ([3]; 60 min post-PTT, pyruvate 2.0 g/kg i.p.) was “significantly elevated”. The “expression of liver gluconeogenic markers” value ([3]; 60 min post-PTT) was “increased; also recorded: elevated”, the plasma insulin levels ([3]; 60 min post-PTT) was “similar” and the “blood glucose during the PTT” value ([3]; pyruvate 2.0 g/kg i.p.) was “significantly lower”.
